# Reference: PubChem BioAssay (NCI)
#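 Growth conditions: 96-well plates. Treatment: test compound, 48 hours, 5 concentrations. Analysis: linear interpolation between bracketing concentrations; unreached endpoints set to highest concentration. The concentration for full growth arrest is given as TGI.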
# Tests used:
# Experiment in all cases: NCI anticancer screen, dose series, 48 h
# 786-0 renal = system: 786-0 renal
# A549 NSCLC = system: A549 NSCLC
# ACHN renal = system: ACHN renal
# CAKI-1 renal = system: CAKI-1 renal
# CCRF-CEM leukemia = system: CCRF-CEM leukemia
# COLO 205 colon = system: COLO 205 colon
# DLD-1 colon = system: DLD-1 colon
# DMS 114 small cell lung = system: DMS 114 small cell lung
# DMS 273 small cell lung = system: DMS 273 small cell lung
# EKVX NSCLC = system: EKVX NSCLC
# HCC-2998 colon = system: HCC-2998 colon
# HCT-116 colon = system: HCT-116 colon
# HCT-15 colon = system: HCT-15 colon
# HL-60(TB) leukemia = system: HL-60(TB) leukemia
# HOP-18 NSCLC = system: HOP-18 NSCLC
# HOP-62 NSCLC = system: HOP-62 NSCLC
# HOP-92 NSCLC = system: HOP-92 NSCLC
# HT29 colon = system: HT29 colon
# IGROV1 ovarian = system: IGROV1 ovarian
# K-562 leukemia = system: K-562 leukemia
# KM12 colon = system: KM12 colon
# KM20L2 colon = system: KM20L2 colon
# LOX IMVI melanoma = system: LOX IMVI melanoma
# LXFL 529 NSCLC = system: LXFL 529 NSCLC
# M14 melanoma = system: M14 melanoma
# M19-MEL melanoma = system: M19-MEL melanoma
# MALME-3M melanoma = system: MALME-3M melanoma
# MOLT-4 leukemia = system: MOLT-4 leukemia
# NCI-H226 lung = system: NCI-H226 lung
# NCI-H23 lung = system: NCI-H23 lung
# NCI-H460 lung = system: NCI-H460 lung
# NCI-H522 lung = system: NCI-H522 lung
# OVCAR-3 ovarian = system: OVCAR-3 ovarian
# OVCAR-4 ovarian = system: OVCAR-4 ovarian
# OVCAR-5 ovarian = system: OVCAR-5 ovarian
# RPMI-8226 leukemia = system: RPMI-8226 leukemia
# RXF 393 renal = system: RXF 393 renal
# SF-268 CNS = system: SF-268 CNS
# SF-295 CNS = system: SF-295 CNS
# SF-539 CNS = system: SF-539 CNS
# SK-MEL-2 melanoma = system: SK-MEL-2 melanoma
# SK-MEL-28 melanoma = system: SK-MEL-28 melanoma
# SK-MEL-5 melanoma = system: SK-MEL-5 melanoma
# SK-OV-3 ovarian = system: SK-OV-3 ovarian
# SN12C renal = system: SN12C renal
# SNB-19 CNS = system: SNB-19 CNS
# SNB-75 CNS = system: SNB-75 CNS
# SR leukemia = system: SR leukemia
# SW-620 colon = system: SW-620 colon
# TK-10 renal = system: TK-10 renal
# U251 CNS = system: U251 CNS
# UACC-257 melanoma = system: UACC-257 melanoma
# UACC-62 melanoma = system: UACC-62 melanoma
# UO-31 renal = system: UO-31 renal
# XF 498 CNS = system: XF 498 CNS
# A498 renal = system: A498 renal
# OVCAR-8 ovarian = system: OVCAR-8 ovarian
# SNB-78 CNS = system: SNB-78 CNS
compound,measurement,setting,value
O=C(Nc1nc2ccccc2n1Cc1ccc(Cl)cc1)NC12CC3CC(CC(C3)C1)C2,TGI,786-0 renal,58.4 µM
same,TGI,A549 NSCLC,66.5 µM
same,TGI,ACHN renal,> 100 µM
same,TGI,CAKI-1 renal,> 100 µM
same,TGI,CCRF-CEM leukemia,> 100 µM
same,TGI,COLO 205 colon,> 100 µM
same,TGI,DLD-1 colon,> 100 µM
same,TGI,DMS 114 small cell lung,90.8 µM
same,TGI,DMS 273 small cell lung,34.7 µM
same,TGI,EKVX NSCLC,> 100 µM
same,TGI,HCC-2998 colon,> 100 µM
same,TGI,HCT-116 colon,64 µM
same,TGI,HCT-15 colon,> 100 µM
same,TGI,HL-60(TB) leukemia,> 100 µM
same,TGI,HOP-18 NSCLC,85.4 µM
same,TGI,HOP-62 NSCLC,37.3 µM
same,TGI,HOP-92 NSCLC,56.8 µM
same,TGI,HT29 colon,> 100 µM
same,TGI,IGROV1 ovarian,> 100 µM
same,TGI,K-562 leukemia,> 100 µM
same,TGI,KM12 colon,> 100 µM
same,TGI,KM20L2 colon,> 100 µM
same,TGI,LOX IMVI melanoma,> 100 µM
same,TGI,LXFL 529 NSCLC,72 µM
same,TGI,M14 melanoma,> 100 µM
same,TGI,M19-MEL melanoma,> 100 µM
same,TGI,MALME-3M melanoma,62 µM
same,TGI,MOLT-4 leukemia,> 100 µM
same,TGI,NCI-H226 lung,70.7 µM
same,TGI,NCI-H23 lung,58.4 µM
same,TGI,NCI-H460 lung,> 100 µM
same,TGI,NCI-H522 lung,42.7 µM
same,TGI,OVCAR-3 ovarian,60.7 µM
same,TGI,OVCAR-4 ovarian,28.9 µM
same,TGI,OVCAR-5 ovarian,> 100 µM
same,TGI,RPMI-8226 leukemia,> 100 µM
same,TGI,RXF 393 renal,64.5 µM
same,TGI,SF-268 CNS,23.8 µM
same,TGI,SF-295 CNS,27.3 µM
same,TGI,SF-539 CNS,53.4 µM
same,TGI,SK-MEL-2 melanoma,87.7 µM
same,TGI,SK-MEL-28 melanoma,68.3 µM
same,TGI,SK-MEL-5 melanoma,> 100 µM
same,TGI,SK-OV-3 ovarian,39.2 µM
same,TGI,SN12C renal,> 100 µM
same,TGI,SNB-19 CNS,53.7 µM
same,TGI,SNB-75 CNS,22.9 µM
same,TGI,SR leukemia,> 100 µM
same,TGI,SW-620 colon,> 100 µM
same,TGI,TK-10 renal,> 100 µM
same,TGI,U251 CNS,46.9 µM
same,TGI,UACC-257 melanoma,> 100 µM
same,TGI,UACC-62 melanoma,38 µM
same,TGI,UO-31 renal,> 100 µM
same,TGI,XF 498 CNS,53.2 µM
Cc1nc2ccccc2c(=O)n1NC(=S)Nc1cccc(Cl)c1,TGI,786-0 renal,> 100 µM
same,TGI,A498 renal,> 100 µM
same,TGI,A549 NSCLC,> 100 µM
same,TGI,ACHN renal,> 100 µM
same,TGI,CAKI-1 renal,> 100 µM
same,TGI,CCRF-CEM leukemia,> 100 µM
same,TGI,COLO 205 colon,> 100 µM
same,TGI,DLD-1 colon,> 100 µM
same,TGI,DMS 273 small cell lung,> 100 µM
same,TGI,HCT-116 colon,> 100 µM
same,TGI,HCT-15 colon,> 100 µM
same,TGI,HL-60(TB) leukemia,> 100 µM
same,TGI,HOP-18 NSCLC,> 100 µM
same,TGI,HOP-62 NSCLC,> 100 µM
same,TGI,HOP-92 NSCLC,> 100 µM
same,TGI,HT29 colon,> 100 µM
same,TGI,IGROV1 ovarian,> 100 µM
same,TGI,K-562 leukemia,> 100 µM
same,TGI,KM12 colon,> 100 µM
same,TGI,LOX IMVI melanoma,> 100 µM
same,TGI,LXFL 529 NSCLC,> 100 µM
same,TGI,M14 melanoma,> 100 µM
same,TGI,M19-MEL melanoma,> 100 µM
same,TGI,MALME-3M melanoma,> 100 µM
same,TGI,MOLT-4 leukemia,> 100 µM
same,TGI,NCI-H226 lung,> 100 µM
same,TGI,NCI-H23 lung,> 100 µM
same,TGI,NCI-H460 lung,> 100 µM
same,TGI,NCI-H522 lung,> 100 µM
same,TGI,OVCAR-4 ovarian,> 100 µM
same,TGI,OVCAR-5 ovarian,> 100 µM
same,TGI,OVCAR-8 ovarian,> 100 µM
same,TGI,RPMI-8226 leukemia,> 100 µM
same,TGI,RXF 393 renal,> 100 µM
same,TGI,SF-268 CNS,> 100 µM
same,TGI,SF-295 CNS,> 100 µM
same,TGI,SF-539 CNS,> 100 µM
same,TGI,SK-MEL-2 melanoma,> 100 µM
same,TGI,SK-MEL-28 melanoma,> 100 µM
same,TGI,SK-MEL-5 melanoma,> 100 µM
same,TGI,SK-OV-3 ovarian,> 100 µM
same,TGI,SN12C renal,> 100 µM
same,TGI,SNB-75 CNS,> 100 µM
same,TGI,SR leukemia,> 100 µM
same,TGI,SW-620 colon,> 100 µM
same,TGI,TK-10 renal,> 100 µM
same,TGI,U251 CNS,> 100 µM
same,TGI,UACC-257 melanoma,> 100 µM
same,TGI,UACC-62 melanoma,> 100 µM
same,TGI,UO-31 renal,> 100 µM
COc1ccc(/C=C2\SC(c3ccc(OC)cc3)N(NC(=O)Cc3ccccc3)C2=O)cc1 (centres undefined),TGI,786-0 renal,> 100 µM
same,TGI,A498 renal,> 100 µM
same,TGI,A549 NSCLC,> 100 µM
same,TGI,ACHN renal,> 100 µM
same,TGI,CAKI-1 renal,> 100 µM
same,TGI,CCRF-CEM leukemia,> 100 µM
same,TGI,COLO 205 colon,> 100 µM
same,TGI,DLD-1 colon,> 100 µM
same,TGI,DMS 114 small cell lung,> 100 µM
same,TGI,DMS 273 small cell lung,> 100 µM
same,TGI,HCT-116 colon,> 100 µM
same,TGI,HCT-15 colon,> 100 µM
same,TGI,HL-60(TB) leukemia,> 100 µM
same,TGI,HOP-18 NSCLC,> 100 µM
same,TGI,HOP-62 NSCLC,> 100 µM
same,TGI,HOP-92 NSCLC,> 100 µM
same,TGI,HT29 colon,> 100 µM
same,TGI,IGROV1 ovarian,> 100 µM
same,TGI,K-562 leukemia,> 100 µM
same,TGI,KM12 colon,> 100 µM
same,TGI,LOX IMVI melanoma,> 100 µM
same,TGI,LXFL 529 NSCLC,> 100 µM
same,TGI,M14 melanoma,> 100 µM
same,TGI,M19-MEL melanoma,> 100 µM
same,TGI,MALME-3M melanoma,> 100 µM
same,TGI,MOLT-4 leukemia,> 100 µM
same,TGI,NCI-H226 lung,> 100 µM
same,TGI,NCI-H23 lung,> 100 µM
same,TGI,NCI-H460 lung,> 100 µM
same,TGI,NCI-H522 lung,> 100 µM
same,TGI,OVCAR-4 ovarian,> 100 µM
same,TGI,OVCAR-5 ovarian,> 100 µM
same,TGI,OVCAR-8 ovarian,> 100 µM
same,TGI,RPMI-8226 leukemia,> 100 µM
same,TGI,RXF 393 renal,> 100 µM
same,TGI,SF-268 CNS,> 100 µM
same,TGI,SF-295 CNS,> 100 µM
same,TGI,SF-539 CNS,> 100 µM
same,TGI,SK-MEL-2 melanoma,> 100 µM
same,TGI,SK-MEL-28 melanoma,> 100 µM
same,TGI,SK-MEL-5 melanoma,> 100 µM
same,TGI,SK-OV-3 ovarian,> 100 µM
same,TGI,SN12C renal,> 100 µM
same,TGI,SNB-75 CNS,> 100 µM
same,TGI,SR leukemia,> 100 µM
same,TGI,SW-620 colon,> 100 µM
same,TGI,TK-10 renal,> 100 µM
same,TGI,U251 CNS,> 100 µM
same,TGI,UACC-257 melanoma,> 100 µM
same,TGI,UACC-62 melanoma,> 100 µM
same,TGI,UO-31 renal,> 100 µM
Cc1nc(-c2nc(C)c(C(=O)NN(C)C)s2)sc1C(=O)NN(C)C,TGI,786-0 renal,> 100 µM
same,TGI,A498 renal,> 100 µM
same,TGI,ACHN renal,> 100 µM
same,TGI,CAKI-1 renal,> 100 µM
same,TGI,CCRF-CEM leukemia,> 100 µM
same,TGI,COLO 205 colon,53.9 µM
same,TGI,DLD-1 colon,> 100 µM
same,TGI,DMS 273 small cell lung,38.9 µM
same,TGI,EKVX NSCLC,> 100 µM
same,TGI,HCC-2998 colon,> 100 µM
same,TGI,HCT-15 colon,> 100 µM
same,TGI,HL-60(TB) leukemia,> 100 µM
same,TGI,HOP-18 NSCLC,> 100 µM
same,TGI,HOP-62 NSCLC,> 100 µM
same,TGI,HOP-92 NSCLC,> 100 µM
same,TGI,HT29 colon,> 100 µM
same,TGI,IGROV1 ovarian,> 100 µM
same,TGI,K-562 leukemia,> 100 µM
same,TGI,KM12 colon,> 100 µM
same,TGI,KM20L2 colon,> 100 µM
same,TGI,LOX IMVI melanoma,48.9 µM
same,TGI,LXFL 529 NSCLC,> 100 µM
same,TGI,M14 melanoma,> 100 µM
same,TGI,M19-MEL melanoma,> 100 µM
same,TGI,MALME-3M melanoma,> 100 µM
same,TGI,MOLT-4 leukemia,> 100 µM
same,TGI,NCI-H226 lung,> 100 µM
same,TGI,NCI-H23 lung,> 100 µM
same,TGI,NCI-H460 lung,> 100 µM
same,TGI,NCI-H522 lung,> 100 µM
same,TGI,OVCAR-3 ovarian,> 100 µM
same,TGI,OVCAR-4 ovarian,> 100 µM
same,TGI,OVCAR-5 ovarian,> 100 µM
same,TGI,OVCAR-8 ovarian,> 100 µM
same,TGI,RPMI-8226 leukemia,91.2 µM
same,TGI,SF-268 CNS,> 100 µM
same,TGI,SF-295 CNS,> 100 µM
same,TGI,SF-539 CNS,> 100 µM
same,TGI,SK-MEL-2 melanoma,> 100 µM
same,TGI,SK-MEL-28 melanoma,> 100 µM
same,TGI,SK-MEL-5 melanoma,> 100 µM
same,TGI,SK-OV-3 ovarian,> 100 µM
same,TGI,SN12C renal,> 100 µM
same,TGI,SNB-19 CNS,> 100 µM
same,TGI,SNB-75 CNS,> 100 µM
same,TGI,SNB-78 CNS,> 100 µM
same,TGI,SR leukemia,40.7 µM
same,TGI,TK-10 renal,> 100 µM
same,TGI,U251 CNS,> 100 µM
same,TGI,UACC-257 melanoma,> 100 µM
same,TGI,UACC-62 melanoma,> 100 µM
same,TGI,UO-31 renal,> 100 µM
same,TGI,XF 498 CNS,> 100 µM
